Test results: patent US10219513B2, “Safening 4-amino-3-chloro-6-(4-chloro-2-fluoro-3-methoxyphenyl)-5-fluoropyridine-2-carboxylic acid compositions in Brassica species and methods of use thereof” (Dow AgroSciences LLC, priority 2016, dated 2019)
Values joined by “and” are separate entries in the source; they are usually repeats but may differ in a detail not shown here. Equal entries are not always repeated.

Tests used:
[1] = tested on: Brassica napus var. napobrassica (rutabaga, BRSNA); assay: Greenhouse postemergence application, visual injury after 20-22 d, BRSNA
Protocol: (§1) Seeds of the desired test plant species were planted in Sun Gro MetroMix® 306 planting mixture, which typically has a pH of 6.0 to 6.8 and an organic matter content of about 30 percent, in plastic pots with a surface area of 103.2 square centimeters (cm^2). […] The plants were grown for 7-36 days (d) in a greenhouse with an approximate 14-hour (h) photoperiod which was maintained at about 23° C. during the day and 22° C. during the night. Nutrients and water were added on a regular basis and supplemental lighting was provided with overhead metal halide 1000-Watt lamps as necessary. The plants were employed for testing when they reached the second or third true leaf stage.
(§2) An aliquot of formulated benzyl 4-amino-3-chloro-6-(4-chloro-2-fluoro-3-methoxyphenyl)-5-fluoropyridine-2-carboxylate (florpyrauxifen-benzyl; 300 grams active ingredient per liter (g ai/L) suspension concentrate (SC)) was placed in a 25 mL glass vial and diluted in a volume of 1.25% (v/v) aqueous Agri-dex crop oil concentrated to obtain a stock solution. […] The concentrated stock solutions were diluted with an aqueous mixture of 1.25% v/v of aqueous Agri-dex crop oil concentrate to provide the appropriate application rates. Compound requirements are based upon a 12 milliliter (mL) application volume at a rate of 187 liters per hectare (L/ha). Stock solutions of the formulated materials were prepared following the same procedure. Spray solutions of the compound mixtures were prepared by adding the stock solutions to the appropriate amount of dilution solution to form a 12 mL spray solution. Formulated compounds were applied to the plant material with an overhead Mandel track sprayer equipped with 8002E nozzles calibrated to deliver 187 L/ha over an application area of 0.503 square meters (m^2) at a spray height of 18 inches (43 centimeters (cm)) above average plant canopy. Control plants were sprayed in the same manner with the solvent blank.
(§3) The treated plants and control plants were placed in a greenhouse as described above and watered by sub-irrigation to prevent wash-off of the test compounds. After 20-22 d, the condition of the test plants as compared with that of the control plants was determined visually and scored on a scale of 0 to 100 percent where 0 corresponds to no injury and 100 corresponds to complete kill. Colby's equation was used to determine the herbicidal effects expected from the mixtures.
(§4) Benzyl 4-amino-3-chloro-6-(4-chloro-2-fluoro-3-methoxyphenyl)-5-fluoropyridine-2-carboxylate (florpyrauxifen-benzyl, 300 g ai/L SC) was combined in two-, three-, and four-way mixtures with one or more of the following: clopyralid-olamine (as Lontrel™ 35A Herbicidal Concentrate), quinclorac (as Facet 75DF), isoxadifen-ethyl (100 g/L SC), cloquintocet-mexyl (120 g/L EC) or mefenpyr-diethyl (as mefenpyr-diethyl 15WP). The mixtures were applied to kale/Chinese kale (Brassica alboglabra, BRSAG), Juncea canola or brown mustard (Brassica juncea, BRSJU), rutabaga (Brassica napus var. napobrassica, BRSNA), all varieties of canola and oilseed rape (Brassica napus, BRSNN), Nexera™ canola (Brassica napus, BRSNN-NEX), winter oilseed rape (Brassica napus, BRSNW), Roundup Ready® canola (Brassica napus, RR-BRSNN), and turnip or Polish canola (Brassica rapa, BRSRR), and the phytotoxicity of the compositions was measured.
(§5) Colby's equation was used to determine the herbicidal effects expected from the mixtures evaluated in the described trials (Colby, S. R. Calculation of the synergistic and antagonistic response of herbicide combinations. Weeds 1967, 15, 20-22.).
(§6) The following equation was used to calculate the expected activity of mixtures containing two active ingredients, A and B: Expected=A+B−(A×B/100) • A=observed efficacy of active ingredient A at the same concentration as used in the mixture; • B=observed efficacy of active ingredient B at the same concentration as used in the mixture.

[2] = tested on: Brassica juncea (Juncea canola or brown mustard, BRSJU); assay: Greenhouse postemergence application, visual injury after 20-22 d, BRSJU
Protocol: as §1, §2, §3, §4, §5, §6

[3] = tested on: Brassica alboglabra (kale/Chinese kale, BRSAG); assay: Greenhouse postemergence application, visual injury after 20-22 d, BRSAG
Protocol: as §1, §2, §3, §4, §5, §6

[4] = florpyrauxifen-benzyl 2.5 g ai/ha alone
[5] = florpyrauxifen-benzyl 5 g ai/ha alone
[6] = florpyrauxifen-benzyl 10 g ai/ha alone
[7] = florpyrauxifen-benzyl alone 2.5 g ai/ha
[8] = florpyrauxifen-benzyl alone 5 g ai/ha
[9] = florpyrauxifen-benzyl alone 10 g ai/ha
[10] = postemergence application, greenhouse, application rate (g ai/ha) varies
[11] = isoxadifen-ethyl 5 g ai/ha alone
[12] = isoxadifen-ethyl 10 g ai/ha alone
[13] = isoxadifen-ethyl 20 g ai/ha alone
[14] = isoxadifen-ethyl 40 g ai/ha alone

COc1c(Cl)ccc(-c2nc(C(=O)OCc3ccccc3)c(Cl)c(N)c2F)c1F [Florpyrauxifen-benzyl, benzyl 4-amino-3-chloro-6-(4-chloro-2-fluoro-3-methoxyphenyl)-5-fluoropyridine-2-carboxylate]
% Visual Injury Obs ([1]; BRSNA, 2.5 g ai/ha): 4% | % Visual Injury Obs ([1]; BRSNA, 5 g ai/ha): 4% | % Visual Injury Obs ([1]; BRSNA, 10 g ai/ha): 13% | Obs % visual injury ([1]; BRSNA, florpyrauxifen-benzyl alone 2.5 g ai/ha): 4% | Obs % visual injury ([1]; BRSNA, florpyrauxifen-benzyl alone 5 g ai/ha): 4% | Obs % visual injury ([1]; BRSNA, florpyrauxifen-benzyl alone 10 g ai/ha): 13% | % Visual Injury BRSNA Obs [1, 4]: 4% | % Visual Injury Obs [1, 4]: 4% | % Visual Injury BRSNA Obs [1, 5]: 4% | % Visual Injury Obs [1, 5]: 4% | % Visual Injury BRSNA Obs [1, 6]: 13% | % Visual Injury Obs [1, 6]: 13% | Obs % visual injury BRSNA [1, 7]: 4% | Obs % visual injury BRSNA [1, 8]: 4% | Obs % visual injury BRSNA [1, 9]: 13% | % Visual Injury BRSNA Obs [1, 10]: 4% and 13% | % Visual Injury Obs ([2]; BRSJU, 2.5 g ai/ha): 7% | % Visual Injury Obs ([2]; BRSJU, 5 g ai/ha): 12% | % Visual Injury Obs ([2]; BRSJU, 10 g ai/ha): 18% | Obs % visual injury ([2]; BRSJU, florpyrauxifen-benzyl alone 2.5 g ai/ha): 7% | Obs % visual injury ([2]; BRSJU, florpyrauxifen-benzyl alone 5 g ai/ha): 12% | Obs % visual injury ([2]; BRSJU, florpyrauxifen-benzyl alone 10 g ai/ha): 18% | % Visual Injury BRSJU Obs [2, 4]: 7% | % Visual Injury Obs [2, 4]: 7% | % Visual Injury BRSJU Obs [2, 5]: 12% | % Visual Injury Obs [2, 5]: 12% | % Visual Injury BRSJU Obs [2, 6]: 18% | % Visual Injury Obs [2, 6]: 18% | Obs % visual injury BRSJU [2, 7]: 7% | Obs % visual injury BRSJU [2, 8]: 12% | Obs % visual injury BRSJU [2, 9]: 18% | % Visual Injury Obs ([3]; BRSAG, 2.5 g ai/ha): 5% | % Visual Injury Obs ([3]; BRSAG, 5 g ai/ha): 3% | % Visual Injury Obs ([3]; BRSAG, 10 g ai/ha): 7% | Obs % visual injury ([3]; BRSAG, florpyrauxifen-benzyl alone 2.5 g ai/ha): 5% | Obs % visual injury ([3]; BRSAG, florpyrauxifen-benzyl alone 5 g ai/ha): 3% | Obs % visual injury ([3]; BRSAG, florpyrauxifen-benzyl alone 10 g ai/ha): 7% | % Visual Injury BRSAG Obs [3, 4]: 5% | % Visual Injury Obs [3, 4]: 5% | % Visual Injury BRSAG Obs [3, 5]: 3% | % Visual Injury Obs [3, 5]: 3% | % Visual Injury BRSAG Obs [3, 6]: 7% | % Visual Injury Obs [3, 6]: 7% | Obs % visual injury BRSAG [3, 7]: 5% | Obs % visual injury BRSAG [3, 8]: 3% | Obs % visual injury BRSAG [3, 9]: 7% | % Visual Injury BRSAG Obs [3, 10]: 3% and 7% and 5%

CCOC(=O)C1=NOC(c2ccccc2)(c2ccccc2)C1 [Isoxadifen-ethyl, ethyl 4,5-dihydro-5,5-diphenyl-1,2-oxazole-3-carboxyalte]
% Visual Injury Obs ([1]; BRSNA, 5 g ai/ha): 0% | % Visual Injury Obs ([1]; BRSNA, 10 g ai/ha): 0% | % Visual Injury Obs ([1]; BRSNA, 20 g ai/ha): 0% | % Visual Injury Obs ([1]; BRSNA, 40 g ai/ha): 0% | Obs % visual injury ([1]; BRSNA, partner alone 5 g ai/ha): 0% | Obs % visual injury ([1]; BRSNA, partner alone 10 g ai/ha): 0% | Obs % visual injury ([1]; BRSNA, partner alone 20 g ai/ha): 0% | Obs % visual injury ([1]; BRSNA, partner alone 40 g ai/ha): 0% | % Visual Injury Obs [1, 11]: 0% | % Visual Injury Obs [1, 12]: 0% | % Visual Injury Obs [1, 13]: 0% | % Visual Injury Obs [1, 14]: 0% | % Visual Injury BRSNA Obs [1, 10]: 0% | % Visual Injury Obs ([2]; BRSJU, 5 g ai/ha): 0% | % Visual Injury Obs ([2]; BRSJU, 10 g ai/ha): 0% | % Visual Injury Obs ([2]; BRSJU, 20 g ai/ha): 0% | % Visual Injury Obs ([2]; BRSJU, 40 g ai/ha): 0% | Obs % visual injury ([2]; BRSJU, partner alone 5 g ai/ha): 0% | Obs % visual injury ([2]; BRSJU, partner alone 10 g ai/ha): 0% | Obs % visual injury ([2]; BRSJU, partner alone 20 g ai/ha): 0% | Obs % visual injury ([2]; BRSJU, partner alone 40 g ai/ha): 0% | % Visual Injury Obs [2, 11]: 0% | % Visual Injury Obs [2, 12]: 0% | % Visual Injury Obs [2, 13]: 0% | % Visual Injury Obs [2, 14]: 0% | % Visual Injury BRSJU Obs [2, 10]: 0% | % Visual Injury Obs ([3]; BRSAG, 5 g ai/ha): 0% | % Visual Injury Obs ([3]; BRSAG, 10 g ai/ha): 0% | % Visual Injury Obs ([3]; BRSAG, 20 g ai/ha): 0% | % Visual Injury Obs ([3]; BRSAG, 40 g ai/ha): 0% | Obs % visual injury ([3]; BRSAG, partner alone 5 g ai/ha): 0% | Obs % visual injury ([3]; BRSAG, partner alone 10 g ai/ha): 0% | Obs % visual injury ([3]; BRSAG, partner alone 20 g ai/ha): 0% | Obs % visual injury ([3]; BRSAG, partner alone 40 g ai/ha): 0% | % Visual Injury Obs [3, 11]: 0% | % Visual Injury Obs [3, 12]: 0% | % Visual Injury Obs [3, 13]: 0% | % Visual Injury Obs [3, 14]: 0% | % Visual Injury BRSAG Obs [3, 10]: 0%
